According to patent US20230011536A1, “MESENCHYMAL STEM CELL DERIVED EXTRACELLULAR VESICLES LOADED WITH AT LEAST ONE PHOTOSENSITIZER AND USES THEREOF FOR THE TREATMENT OF PERITONEAL CARCINOMATOSIS” (priority 2019, published 2023):

Experiments:
[1] = mTHPC biodistribution after intraperitoneal injection, colorectal peritoneal carcinomatosis model (CT26); type: in vivo, mouse; conditions: for mTHPC level in tumor tissue: 0.5 mg/kg mTHPC, mean±SEM
Method: All animal experiments were performed in agreement with institutional animal use and care after approval by the local Ethics Committee (registration number for the carcinomatosis model experiment: APAFIS-8617). Six-week-old female BALB/c (provided by Charles River, Arbresle, France and weighing 18 g) and C57BL/6 mice were provided with food and water ad libidum, for colon and ovarian model respectively. The animals were allowed to acclimate to the facility for at least one week before being used for experiments. Colorectal model was induced with an intraperitoneal injection of 5·10^4 CT26 cells resuspended in a volume of 200 μL of physiological saline per inoculum. […] Between the days of IP injection and sacrifice, the wellbeing of the mice was checked twice a week through the search of any sign of pain, dehydration, changing in behavior or loss of weight.
Briefly, tumor-bearing animals (with colorectal carcinomatosis) were injected at 0.5 mg/kg mTHPC intraperitoneally. Either at 4 h, 15 h, 24 h or 48 h mice were sacrificed to determine mTHPC accumulation in different organs: tumors, liver, spleen, kidney, intestine, peritoneum, skin and lung. First, organs were weighed and grinded in PBS (1 mL per 10 mg of organ). The amount of 0.8 mL of MeOH per 10 mg of organ was added to the solution and vortexed; then, 0.8 mL of chloroform was added. The solution was centrifuged at 1400 rpm for 10 minutes to allow the separation of the aqueous and chloroform phases. The bottom layer consisting of the chloroform and the solubilized mTHPC was transferred for spectroscopy measurements. Fluorescence emission spectra were obtained by a fluorescence spectrophotometer using 415 nm excitation wavelength.

[2] = system: colorectal peritoneal carcinomatosis (CT26); experiment: Early effectiveness of PDT in mouse model of colorectal peritoneal carcinomatosis (histology, TUNEL, immunostaining 48 h after illumination); type: in vivo
Method: (§1) After 24 h, animals from both groups were anesthetized with isoflurane, a midline laparotomy was performed to allow invasive laser irradiation, and were then irradiated using a 650 nm laser at a fluence of 10 J/cm^2 (100 mW/cm^2 for 100 s). Two irradiations spots were successively realized to allow an illumination of the entire cavity and drops of saline were used to keep the tissue moist. A heating device was used to keep body temperature stable throughout the treatment until the animal was woken up. The peritoneum and the skin were separately sutured immediately after irradiation.
(§2) Treatment injection was made 12 days after IP inoculation of CT26, followed by invasive illumination 24 hours after. Six groups were performed for each experimentation: (i) no treatment, (ii) laser, (iii) free mTHPC, (iv) EVs-mTHPC, (v) free mTHPC+laser, (vi) EVs-mTHPC+laser.
Early effectiveness was evaluated 48 hours after illumination to compare: tumoral necrosis, apoptosis, macrophages invasion, lymphocyte recruitment, vascular damage and proliferative index result according to treatment. Long-term effectiveness consisted on a survival analysis function of the treatment.
For immunohistochemical detection of the chosen markers for tumor tissue, sections were deparaffined and subject to antigen retrieval methods validated for each of the primary antibodies.
Antibody expression for each analysis was evaluated by the mean number of positive cells in 3 randomly chosen areas (×40 magnification) for 10-15 nodes by treatment. Quantitative analysis of immunostaining preparation was performed using the color segmentation ImageJ plugin developed by the Biomedical Imaging Group at the EPFL, Switzerland.
TUNEL assay: Cell apoptosis in tumour was detected by a FragEL DNA fragmentation (TUNEL) detection kit (Sigma, Roche, ref 11684795910). In brief the cryostat section were permeabilized with 0.1% Triton and 0.1% (citrate de sodium) in 10×PBS. The slides were then labeled with a TdT reaction mixture for 60 min and were mounted with a mounting solution containing 4′, 6-diamidino-2-phenylindole (DAPI). The apoptotic cells (green) and cell nucleus (blue) was examined using a fluorescence microscopy. The percentage of apoptotic cells was assessed in 2 randomly fields at 40× magnification. The apoptotic index was calculated with image J.
For image-based quantitative analysis of blood vessels, immunofluorescence detection of CD31 was made after one hour incubation with antiCD31 antibody (BD 553370,1/50) and 45 min incubation with second antibody (Alexa Fluor® 488, ThermoFisher, A11006, dilution 1/200)

[3] = system: colorectal peritoneal carcinomatosis (CT26); experiment: Survival analysis after PDT in colorectal peritoneal carcinomatosis model; type: in vivo, mouse
Method: as §1, §2
Another 10 or 11 mice were selected from each group to evaluate the overall survival until 30 days. The end point was defined as mice death or the cachexia with the loss of 20% of the total weight that required the killing of the animal (as mentioned in the registration).

Oc1cccc(-c2c3nc(c(-c4cccc(O)c4)c4ccc([nH]4)c(-c4cccc(O)c4)c4nc(c(-c5cccc(O)c5)c5ccc2[nH]5)CC4)C=C3)c1 [mTHPC, 5,10,15,20-Tetrakis(3-hydroxyphenyl)chlorin]
mTHPC level in tumor tissue ([1]; 4 h after IP injection): 0.10±0.01 ng/mg tissue
mTHPC level in tumor tissue ([1]; 15 h after IP injection): 0.15±0.04 ng/mg tissue
mTHPC level in tumor tissue ([1]; 24 h after IP injection): 0.16±0.05 ng/mg tissue
mTHPC level in tumor tissue ([1]; 48 h after IP injection): 0.10±0.00 ng/mg tissue
tumor-to-organ ratio, total average ([1]; average over all time points): 2.5
CD8 detection in tumor ([2]; +laser): 1.88%±0.2
CD31 expression (fluorescence signal) ([2]; +laser): 0.55·10^7±1.0·10^6
TUNEL mean fluorescence per mm^2 of tumor (apoptosis) ([2]; +laser): 2.17±0.2
anti CD3 labeling in tumor (T-lymphocyte infiltration) ([2]; +laser): 2.51%±0.3
macrophage intra-tumor invasion (anti F4/80) ([2]; +laser): 41.45%±2.2
mean Ki67-index ([2]; +laser): 26.2%±4.5
proliferation index reduced by a factor of ([2]; photoactivated (+laser)): 2
CD8 detection in tumor ([2]; without laser): 0.44%±0.07
CD31 expression (fluorescence signal) ([2]; without laser): 1.06·10^7±1.4·10^6
TUNEL mean fluorescence per mm^2 of tumor (apoptosis) ([2]; without laser): 0.86±0.4
anti CD3 labeling in tumor (T-lymphocyte infiltration) ([2]; without laser): 0.33%±0.07
macrophage intra-tumor invasion (anti F4/80) ([2]; without laser): 13.19%±1.4
mean Ki67-index ([2]; without laser): 45.52±3.4%
dead mice 4 days after laser illumination (lethal toxicity) ([3]; +laser, […]): 91%
histological analysis after PDT (liver, kidney) ([3]; non-vectorized PDT group): hepatic and kidney necrosis
